Values quoted from earlier work in patent US20260124292A1, “MU[…] INFLUENZA VACCINE” (priority 2022, published 2026).

Tested on: influenza A virus-specific CTL
Conditions: according to Boon et al. 2006
In the case of “ELRSRYWAI (listed as Alphainfluenzavirus influenzae) [SEQ ID NO: 2]”, the Immunodominance is listed as “(Intermediate”. For CTELKLSDY [SEQ ID NO: 4], the Immunodominance is given as “(Intermediate”. In the case of “RRSGAAGAAVK (listed as Alphainfluenzavirus influenzae) [SEQ ID NO: 16]”, the Immunodominance is listed as “(Highly”. In the case of “SRYWAIRTR (listed as Alphainfluenzavirus influenzae) [SEQ ID NO: 3]”, the Immunodominance is listed as “(Highly”.
